Measurements from the NIST ThermoML archive (doi:10.1016/j.jct.2011.07.008).

Experiment: mn = molality of the nth substance listed, in mol/kg
Settings: 101 kPa, Liquid; for viscosity: Capillary tube (Ostwald / Ubbelohde) method

COCCO [2-methoxyethan-1-ol] + O
Settings | viscosity [mPa·s]
275.15 K, m1 = 0.0097 | 1.006
275.15 K, m1 = 0.0205 | 1.011
275.15 K, m1 = 0.0313 | 1.016
275.15 K, m1 = 0.0393 | 1.02
275.15 K, m1 = 0.0487 | 1.023
275.15 K, m1 = 0.0638 | 1.028
275.15 K, m1 = 0.0719 | 1.03
275.15 K, m1 = 0.0813 | 1.032
275.15 K, m1 = 0.0905 | 1.034
275.15 K, m1 = 0.102 | 1.035
283.15 K, m1 = 0.0104 | 1.001
283.15 K, m1 = 0.0193 | 1.002
283.15 K, m1 = 0.0326 | 1.005
283.15 K, m1 = 0.0417 | 1.006
283.15 K, m1 = 0.0492 | 1.008
283.15 K, m1 = 0.0599 | 1.011
283.15 K, m1 = 0.0698 | 1.013
283.15 K, m1 = 0.0804 | 1.016
283.15 K, m1 = 0.0893 | 1.019
283.15 K, m1 = 0.0901 | 1.019
283.15 K, m1 = 0.1 | 1.023
283.15 K, m1 = 0.1013 | 1.023

Settings | mass density [kg/m3]
275.15 K, Pycnometric method, m1 = 0.0097 | 999.96
275.15 K, Pycnometric method, m1 = 0.0205 | 999.99
275.15 K, Pycnometric method, m1 = 0.0313 | 999.99
275.15 K, Pycnometric method, m1 = 0.0393 | 1000.02
275.15 K, Pycnometric method, m1 = 0.0487 | 1000.07
275.15 K, Pycnometric method, m1 = 0.0638 | 1000.09
275.15 K, Pycnometric method, m1 = 0.0719 | 1000.1
275.15 K, Pycnometric method, m1 = 0.0813 | 1000.12
275.15 K, Pycnometric method, m1 = 0.0905 | 1000.12
275.15 K, Pycnometric method, m1 = 0.102 | 1000.17
283.15 K, Buoyancy - hydrostatic balance with magnetic suspension - one sinker, m1 = 0.0104 | 999.73
283.15 K, Buoyancy - hydrostatic balance with magnetic suspension - one sinker, m1 = 0.0193 | 999.73
283.15 K, Buoyancy - hydrostatic balance with magnetic suspension - one sinker, m1 = 0.0326 | 999.76
283.15 K, Buoyancy - hydrostatic balance with magnetic suspension - one sinker, m1 = 0.0417 | 999.81
283.15 K, Buoyancy - hydrostatic balance with magnetic suspension - one sinker, m1 = 0.0492 | 999.79
283.15 K, Buoyancy - hydrostatic balance with magnetic suspension - one sinker, m1 = 0.0599 | 999.88
283.15 K, Buoyancy - hydrostatic balance with magnetic suspension - one sinker, m1 = 0.0698 | 999.93
283.15 K, Buoyancy - hydrostatic balance with magnetic suspension - one sinker, m1 = 0.0804 | 999.91
283.15 K, Buoyancy - hydrostatic balance with magnetic suspension - one sinker, m1 = 0.0893 | 999.94
283.15 K, Buoyancy - hydrostatic balance with magnetic suspension - one sinker, m1 = 0.0901 | 999.94
283.15 K, Buoyancy - hydrostatic balance with magnetic suspension - one sinker, m1 = 0.1 | 999.95
283.15 K, Buoyancy - hydrostatic balance with magnetic suspension - one sinker, m1 = 0.1013 | 999.97

O [water] + COCCOCCO
m2 = 0
Settings | viscosity [mPa·s]
275.15 K | 1.674
283.15 K | 1.31

m2 = 0
Settings | mass density [kg/m3]
275.15 K, Pycnometric method | 999.94
283.15 K, Buoyancy - hydrostatic balance with magnetic suspension - one sinker | 999.7

O [water] + CCOCCOCCO
m2 = 0
Settings | viscosity [mPa·s]
275.15 K | 1.674
283.15 K | 1.31

m2 = 0
Settings | mass density [kg/m3]
275.15 K, Pycnometric method | 999.94
283.15 K, Buoyancy - hydrostatic balance with magnetic suspension - one sinker | 999.7
